One compound from publication PMC11821258 (Molecules, 2025) can be followed below.

SMILES strings stand for the structures.

The test system of one experiment is human biphenotypic B myelomonocytic leukemia MV4-11. Put plainly: Antiproliferative activity, MTT assay, 72 h. The format is cell-based. Conditions: Homo sapiens; MV4-11, 72 h, MTT; read-out: IC50. The method, then: (§1) The tested compounds were dissolved in DMSO (dimethyl sulfoxide) to a concentration of 10 mg/mL and then were diluted in the culture medium to reach the final concentrations. The cells were plated in 384-well plates at a density of 1 × 10^3 or 2 × 10^3 (MCF-10A) cells per well (Greiner Bio One, Kremsmünster, Austria) and in 96-well plates (MV4-11 cell; Sarstedt, Nümbrecht, Germany) at a density of 5 × 10^3 cells per well. After 24 h of incubation, the tested compounds were added at concentrations in the range of 100–0.03 µg/mL and, after the next 72 h of exposure to tested agents, the cytotoxic effect of all agents was examined using the MTT (MV4-11) or SRB assay, described previously. The values of IC50 (inhibitory concentration 50%) were calculated separately for each experiment (repeated 3–5 times) using the Prolab-3 system which is based on Cheburator 0.4 software. Doxorubicin was applied as a reference drug. The IC50 values in µg/mL were calculated to µM.
This assay was used against MV4-11 leukemia cells and was performed after 72 h of exposure of the tested agents to the cells. For each well, 20 µL of the MTT [3-(4,5-dimethylthiazol-2-yl)-2,5-diphenyl tetrazolium bromide] solution (5 mg/mL, Merck, Darmstadt, Germany) was added. After the incubation time (4 h at 37 °C), 80 µL of the lysing buffer was added to each well (mixture of 225 mL of DMF (dimethylformamide) Avantor, Poland; 67.5 g of SDS, Merck, Darmstadt, Germany; and 275 mL of distilled water). After the next 24 h, the absorbance of the samples was measured at a 570 nm wavelength on a Synergy H4 photometer (BioTek Instruments, Winooski, VT, USA). The absorbance of wells without the cells was the background.
(Formazan colour is commonly taken as a measure of viable cells.)
In the case of `C#CC(=O)OC[C@]12CC[C@@H](C(=C)C)C1C1CCC3[C@@]4(C)CC[C@H](OC(=O)CCC(=O)O)C(C)(C)C4CC[C@@]3(C)[C@]1(C)CC2` (some centres unmarked) [Compound 6a], the IC50 (commonly the concentration needed to halve the response being measured) is 2.57 ± 1.01 µM.

In another experiment the test system is human breast cancer MCF-7. Put plainly: Antiproliferative activity, SRB assay, 72 h. The experiment is classed as cell-based. Conditions: Homo sapiens, MCF7; MCF-7, 72 h, SRB; read-out: IC50. The method, then:
as §1
(§2) The cytotoxicity assay was performed after the cultured cells were exposed to the tested agents for 72 h using the authomatic Washer dyspenser EL406, BioTek. At the first step, the washer dispenser collected 40 µL of cultured medium from each wells, and then the cells were fixed by gently layering 20 µL per well of cold 25% trichloroacetic acid to each well. The incubation time was 40 min and then the plates were washed with tap water. The cells were stained with 20 µL per well of 0.1% sulforhodamine B (SRB, Merck, Darmstadt, Germany) for 30 min. Unbound sulforhodamine B was removed by washing it with 1% acetic acid. The protein-bound dye was extracted in 30 min using 70 µL per well of 10 mM unbuffered Tris base (Merck, Darmstadt, Germany). The absorbance (at 540 nm) was measured on a Synergy H4 photometer (BioTek Instruments, Winooski, VT, USA). The absorbance of the wells without the cells was the background.
(In general: The SRB assay estimates cell density from bound dye.)
For `C#CC(=O)OC[C@]12CC[C@@H](C(=C)C)C1C1CCC3[C@@]4(C)CC[C@H](OC(=O)CCC(=O)O)C(C)(C)C4CC[C@@]3(C)[C@]1(C)CC2` (some centres unmarked) [Compound 6a], the IC50 is 16 ± 1.01 µM.

The experiment is the same for the next values; noted with them: IC50 MCF-10A / IC50 MCF-7.
Regarding `C#CC(=O)OC[C@]12CC[C@@H](C(=C)C)C1C1CCC3[C@@]4(C)CC[C@H](OC(=O)CCC(=O)O)C(C)(C)C4CC[C@@]3(C)[C@]1(C)CC2` (some centres unmarked) [Compound 6a], the SI came to 3.09.

The next experiment has as its system human colon cancer HCT116 cells. Put plainly: Antiproliferative activity, SRB assay, 72 h. The experiment is classed as cell-based. Conditions: Homo sapiens, HCT-116; HCT116, 72 h, SRB; read-out: IC50. The method, then: as §1, §2
Regarding `C#CC(=O)OC[C@]12CC[C@@H](C(=C)C)C1C1CCC3[C@@]4(C)CC[C@H](OC(=O)CCC(=O)O)C(C)(C)C4CC[C@@]3(C)[C@]1(C)CC2` (some centres unmarked) [Compound 6a], the IC50 came out at 20.7 ± 9.08 µM.

The experiment is the same for the next values; noted with them: IC50 MCF-10A / IC50 HCT116.
Turning to `C#CC(=O)OC[C@]12CC[C@@H](C(=C)C)C1C1CCC3[C@@]4(C)CC[C@H](OC(=O)CCC(=O)O)C(C)(C)C4CC[C@@]3(C)[C@]1(C)CC2` (some centres unmarked) [Compound 6a], the SI is on record as 2.39.

The next experiment deals with human lung carcinoma A549. Put plainly: Antiproliferative activity, SRB assay, 72 h. The format is cell-based. Conditions: Homo sapiens; A549, 72 h, SRB; read-out: IC50. The method, then:
as §1, §2
Turning to `C#CC(=O)OC[C@]12CC[C@@H](C(=C)C)C1C1CCC3[C@@]4(C)CC[C@H](OC(=O)CCC(=O)O)C(C)(C)C4CC[C@@]3(C)[C@]1(C)CC2` (some centres unmarked) [Compound 6a], the IC50 was found to be 12.9 ± 0.67 µM.

Staying with this experiment, now noted: IC50 MCF-10A / IC50 A549.
With `C#CC(=O)OC[C@]12CC[C@@H](C(=C)C)C1C1CCC3[C@@]4(C)CC[C@H](OC(=O)CCC(=O)O)C(C)(C)C4CC[C@@]3(C)[C@]1(C)CC2` (some centres unmarked) [Compound 6a], the SI was 3.82.

A further experiment concerns human melanoma Hs294T cells. Put plainly: Antiproliferative activity, SRB assay, 72 h. The experiment is classed as cell-based. Conditions: Homo sapiens, Hs 294T; Hs249T (so in the source), 72 h, SRB; read-out: IC50. The method, then:
as §1, §2
In the case of `C#CC(=O)OC[C@]12CC[C@@H](C(=C)C)C1C1CCC3[C@@]4(C)CC[C@H](OC(=O)CCC(=O)O)C(C)(C)C4CC[C@@]3(C)[C@]1(C)CC2` (some centres unmarked) [Compound 6a], the IC50 was 3.53 ± 0.67 µM.

The same experiment, now with this note: IC50 MCF-10A / IC50 Hs249T (so in the source).
Take `C#CC(=O)OC[C@]12CC[C@@H](C(=C)C)C1C1CCC3[C@@]4(C)CC[C@H](OC(=O)CCC(=O)O)C(C)(C)C4CC[C@@]3(C)[C@]1(C)CC2` (some centres unmarked) [Compound 6a]: the SI was 14.

The subject of a further experiment is human pancreas cancer MiaPaca-2 cells. In words: Antiproliferative activity, SRB assay, 72 h. The experiment is classed as cell-based. Conditions: Homo sapiens, MIA PaCa-2; MiaPaca-1 (so in the source), 72 h, SRB; read-out: IC50. The method, then: as §1, §2
Consider `C#CC(=O)OC[C@]12CC[C@@H](C(=C)C)C1C1CCC3[C@@]4(C)CC[C@H](OC(=O)CCC(=O)O)C(C)(C)C4CC[C@@]3(C)[C@]1(C)CC2` (some centres unmarked) [Compound 6a], for which the IC50 is 18.5 ± 9.75 µM.

Staying with this experiment, now noted: IC50 MCF-10A / IC50 MiaPaca-1 (so in the source).
As to `C#CC(=O)OC[C@]12CC[C@@H](C(=C)C)C1C1CCC3[C@@]4(C)CC[C@H](OC(=O)CCC(=O)O)C(C)(C)C4CC[C@@]3(C)[C@]1(C)CC2` (some centres unmarked) [Compound 6a], the SI stood at 2.67.

A further experiment deals with human prostate adenocarcinoma PC-3. Put plainly: Antiproliferative activity, SRB assay, 72 h. The format is cell-based. Conditions: Homo sapiens; PC-3, 72 h, SRB; read-out: IC50. The method, then:
as §1, §2
In the case of `C#CC(=O)OC[C@]12CC[C@@H](C(=C)C)C1C1CCC3[C@@]4(C)CC[C@H](OC(=O)CCC(=O)O)C(C)(C)C4CC[C@@]3(C)[C@]1(C)CC2` (some centres unmarked) [Compound 6a], the IC50 was 0.41 ± 0.08 µM.

Staying with this experiment, now noted: IC50 MCF-10A / IC50 PC-3.
On to `C#CC(=O)OC[C@]12CC[C@@H](C(=C)C)C1C1CCC3[C@@]4(C)CC[C@H](OC(=O)CCC(=O)O)C(C)(C)C4CC[C@@]3(C)[C@]1(C)CC2` (some centres unmarked) [Compound 6a], for which the SI is reported as 121.

The subject of a further experiment is human normal epithelial cells from the mammary gland (MCF-10A). In words: Cytotoxicity on non-tumorigenic cells, SRB assay, 72 h. The experiment is classed as cell-based. Conditions: Homo sapiens, MCF-10A normal cells, SRB, read-out: IC50. The method, then: as §1, §2
With `C#CC(=O)OC[C@]12CC[C@@H](C(=C)C)C1C1CCC3[C@@]4(C)CC[C@H](OC(=O)CCC(=O)O)C(C)(C)C4CC[C@@]3(C)[C@]1(C)CC2` (some centres unmarked) [Compound 6a], the IC50 is 49.4 ± 17.8 µM.

A further experiment has as its system MV4-11 cells. In words: Cell cycle analysis by flow cytometry (propidium iodide). The format is cell-based, human. Conditions: MV4-11, 72 h, about 1.5 × IC50. The method, then: After incubation, the cells were collected and counted with a hemocytometer, and the 5×10^5 cells were washed twice in cold PBS (phosphate-buffered saline) and fixed for 24 h in 70% ethanol at −20 °C. Then, the cells were washed twice in PBS and incubated with 0.5 mL of RNAse (8 μg/mL, Thermo Fisher, Waltham, MA, USA) at 37 °C for 1 h. The cells were stained for 30 min with propidium iodide (final concentration: 50 μg/mL, Merck, Darmstadt, Germany) at 4 °C and the cellular DNA content was analyzed by conducting flow cytometry using a BD LSRFortessa cytometer (BD Bioscience, San Jose, CA, USA). Compounds at each concentration were tested at least three times independently. The obtained results were analyzed using Flowing software 2.5.1 (Cell Imaging Core, Turku Centre for Biotechnology, University of Turku and Åbo Akademi University, Finland).
Background: In flow cytometry, cells or beads pass a laser one at a time.
Take `C#CC(=O)OC[C@]12CC[C@@H](C(=C)C)C1C1CCC3[C@@]4(C)CC[C@H](OC(=O)CCC(=O)O)C(C)(C)C4CC[C@@]3(C)[C@]1(C)CC2` (some centres unmarked) [Compound 6a]: the “number of death cells” value was “increased”.

Staying with this experiment, now noted: MV4-11, 72 h, about 1.5 × IC50, statistically significant.
Consider `C#CC(=O)OC[C@]12CC[C@@H](C(=C)C)C1C1CCC3[C@@]4(C)CC[C@H](OC(=O)CCC(=O)O)C(C)(C)C4CC[C@@]3(C)[C@]1(C)CC2` (some centres unmarked) [Compound 6a], for which the “number of cells in the G2/M and S phases” value is “decreased”.

The next experiment deals with MV4-11 cells. Put plainly: Apoptosis determination via Annexin V and PI staining. Conditions: MV4-11, 72 h, higher concentrations. The format is cell-based, human. The method, then: Camptothecin at a concentration of 0.05 uM was used as a positive control. After incubation, the cells were collected and counted with a hemocytometer, and 1×10^5 cells were washed twice with PBS. APC-Annexin V (Becton Dickinson, Pharmingen, Franklin Lakes, NJ, USA) was dissolved to the concentration of […] in a binding buffer (10 mM HEPES/NaOH, pH 7.4; 150 mM NaCl; 5 mM KCl; 1 mM MgCl2; and 1.8 mM CaCl2) (HIIET, Wrocław, Poland), and the cells were suspended in 200 µL of this solution. After 15 min of the incubation in the dark at room temperature, 20 µL of propidium iodide (PI) solution (0.02 mg/mL) was added. Data acquisition was performed by conducting flow cytometry using a BD LSRFortessa cytometer (BD Bioscience, San Jose, CA, USA). The compounds were tested at least three times independently. Results were analyzed using Flowing software 2.5.1 (Turku, Finland). […] Double-negative cells were live cells, PI+/Annexin V+ were late apoptotic cells, PI-/Annexin V+ were early apoptotic cells, and PI+/Annexin V- were necrotic cells.
On to `C#CC(=O)OC[C@]12CC[C@@H](C(=C)C)C1C1CCC3[C@@]4(C)CC[C@H](OC(=O)CCC(=O)O)C(C)(C)C4CC[C@@]3(C)[C@]1(C)CC2` (some centres unmarked) [Compound 6a], for which the induction of apoptosis entry is “induction of apoptosis was observed”.
